According to patent publication US20080167363A1, “Modulation of Neurogenesis By Melatoninergic Agents” (BrainCells, Inc, priority 2006, published 2008):
Where “and” joins values, the source holds several entries; their conditions need not be identical. Equal entries are not always repeated.

Key:
mGluR3 = mGluR3 (Homo sapiens, UniProt Q14832); details: antagonist; cited from earlier work
[1] = test system: Group I or Group III receptors; details: at sub-mM concentrations; cited from earlier work
mGluR2 = mGluR2 (Homo sapiens, UniProt Q14416); details: antagonist; cited from earlier work
[2] = test system: Human neural stem cells (hNSCs); assay: Neuronal differentiation of human neural stem cells (TUJ-1 staining); assay type: cell-based; details: for maximum neuronal differentiation percent of positive control: basal media values subtracted
Excerpt: Human neural stem cells (hNSCs) were isolated and grown in monolayer culture, plated, treated with varying concentrations of the melatonin agonist ramelteon and stained with TUJ-1 antibody, as described in U.S. Provisional Application No. 60/697,905 (incorporated by reference). Mitogen-free test media with a positive control for neuronal differentiation was used along with basal media without growth factors as a negative control. […] Provisional Application No. 60/697,905 (incorporated by reference). Mitogen-free test media with a positive control for neuronal differentiation was used along with basal media without growth factors as a negative control. Human neural stem cells (hNSCs) were isolated and grown in monolayer culture, plated, treated with varying concentrations of captopril and/or melatonin (test compounds), and stained with TUJ-1 antibody, as described in U.S. Provisional Application No. 60/697,905 (incorporated by reference). Mitogen-free test media with a positive control for neuronal differentiation was used along with basal media without growth factors as a negative control. Human neural stem cells (hNSCs) were isolated and grown in monolayer culture, plated, treated with varying concentrations of serotonin (5-HT) and/or melatonin (test compounds), and stained with TUJ-1 antibody, as described in U.S. Provisional Application No. 60/697,905 (incorporated by reference). Mitogen-free test media with a positive control for neuronal differentiation was used along with basal media without growth factors as a negative control. Human neural stem cells (hNSCs) were isolated and grown in monolayer culture, plated, treated with varying concentrations of buspirone in the presence or absence of the melatonin agonist melatonin, and stained with TUJ-1 antibody, as described in U.S. Provisional Application No. 60/697,905 (incorporated by reference). Mitogen-free test media with a positive control for neuronal differentiation was used along with basal media without growth factors as a negative control. Human neural stem cells (hNSCs) were isolated and grown in monolayer culture, plated, treated with varying concentrations of buspirone in the presence or absence of the melatonin agonist ramelteon, and stained with TUJ-1 antibody, as described in U.S. Provisional Application No. 60/697,905 (incorporated by reference). Mitogen-free test media with a positive control for neuronal differentiation was used along with basal media without growth factors as a negative control. Human neural stem cells (hNSCs) were isolated and grown in monolayer culture, plated, treated with varying concentrations of the melatonin […] and stained with TUJ-1 antibody, as described in U.S. Provisional Application No. 60/697,905 (incorporated by reference). Mitogen-free test media with a positive control for neuronal differentiation was used along with basal media without growth factors as a negative control. Human neural stem cells (hNSCs) were isolated and grown in monolayer culture, plated, treated with varying concentrations of the melatonin […] and stained with TUJ-1 antibody, as described in U.S. Provisional Application No. 60/697,905 (incorporated by reference). Mitogen-free test media with a positive control for neuronal differentiation was used along with basal media without growth factors as a negative control. Human neural stem cells (hNSCs) were isolated and grown in monolayer culture, plated, treated with varying concentrations of the melatonin agonist agomelatine and stained with TUJ-1 antibody, as described in U.S. Provisional Application No. 60/697,905 (incorporated by reference). Mitogen-free test media with a positive control for neuronal differentiation was used along with basal media without growth factors as a negative control. The presence of synergy was determined by use of a combination index (CI). […]

[3] = test system: KA, AMPA, and NMDA iGlu receptors; details: cited from earlier work
human mGlu2 receptors = human mGlu2 receptors (Homo sapiens, UniProt Q14416); details: agonist, in vitro; cited from earlier work
human mGlu3 receptors = human mGlu3 receptors (Homo sapiens, UniProt Q14832); details: agonist, in vitro; cited from earlier work
[4] = test system: Human neural stem cells (hNSCs); assay: Astrocyte differentiation of human neural stem cells (GFAP staining); assay type: cell-based; details: agent alone; for EC50: Homo sapiens, Neural stem cell, percent of astrocyte positive control, basal media subtracted
Excerpt: Human neural stem cells (hNSCs) were isolated and grown in monolayer culture, plated, treated with varying concentrations of buspirone in the presence or absence of the melatonin agonist melatonin, and stained with an antibody for the detection of the astrocyte marker GFAP, as described in U.S. Provisional Application No. 60/697,905 (incorporated by reference). Mitogen-free test media with a positive control for astrocyte differentiation was used along with basal media without growth factors as a negative control. Human neural stem cells (hNSCs) were isolated and grown in monolayer culture, plated, treated with varying concentrations of buspirone in the presence or absence of the melatonin agonist ramelteon, and stained with an antibody for the detection of the astrocyte marker GFAP, as described in U.S. Provisional Application No. 60/697,905 (incorporated by reference). Mitogen-free test media with a positive control for astrocyte differentiation was used along with basal media without growth factors as a negative control.

Male F344 rats [5] = assay: Novelty suppressed feeding assay (latency to eat); assay type: in vivo, rat; details: 0.5 mg/kg buspirone and/or 3.0 mg/kg melatonin, i.p., 1x per day for 21 days
Method: Male F344 rats were dosed 1× per day for 21-days with 0 (vehicle only) 0.5 mg/kg buspirone (n=12 per dose group, i.p.) 3.0 mg/kg melatonin (n=12 per dose group, i.p.) or the combination of the two drugs at the same doses. […] Results shown in this figure indicate the mean latency to approach and eat a food pellet within the novel environment. Data are presented as latency to eat expressed as percent baseline.
Male F344 rats were dosed 1× per day for 21-days with 0 (vehicle only), 0.5 mg/kg buspirone (n=12 per dose group, i.p.), 3.0 mg/kg melatonin (n=12 per dose group, i.p.), or the combination of the two drugs at the same doses. Twenty-four hours prior to behavioral testing, all food is removed from the home cage. At the time of testing a single pellet is placed in the center of a novel arena. Animals are placed in the corner of the arena and the latency (in time) to eat the pellet is recorded. […] Animals receive compound daily for 21 days and testing is performed on day 21. A decreased latency to eat the food pellet is indicative of both neurogenesis and antidepressant activity.

Male F344 rats [6] = assay: In vivo neurogenesis (BrdU positive cells in dentate gyrus); set-up: species or system rat; details: 0.5 mg/kg buspirone and/or 3.0 mg/kg melatonin, i.p., 1x per day for 28 days; compared to vehicle
Method: (§1) Male F344 rats were dosed 1× per day for 28-days with 0 (vehicle only), 0.5 mg/kg buspirone (n=12 per dose group, i.p.), 3.0 mg/kg melatonin (n=12 per dose group, ip) or the combination of the two drugs at the same doses. BrdU was administered once daily between days 9 and 14 (100 mg/kg/day, i.p., n=12 per dose group). […] Data are presented as percent change in BrdU positive cells per cubic mm dentate gyrus.
as §1, with “For the in vivo neurogenesis assays, male” for “Male”

[7] = Homo sapiens, Neural stem cell, agent alone, concentration response curve, percent of neuronal positive control, basal media subtracted, read-out: EC50, neuronal differentiation

mGluR2, sequence (Q14416 19-872): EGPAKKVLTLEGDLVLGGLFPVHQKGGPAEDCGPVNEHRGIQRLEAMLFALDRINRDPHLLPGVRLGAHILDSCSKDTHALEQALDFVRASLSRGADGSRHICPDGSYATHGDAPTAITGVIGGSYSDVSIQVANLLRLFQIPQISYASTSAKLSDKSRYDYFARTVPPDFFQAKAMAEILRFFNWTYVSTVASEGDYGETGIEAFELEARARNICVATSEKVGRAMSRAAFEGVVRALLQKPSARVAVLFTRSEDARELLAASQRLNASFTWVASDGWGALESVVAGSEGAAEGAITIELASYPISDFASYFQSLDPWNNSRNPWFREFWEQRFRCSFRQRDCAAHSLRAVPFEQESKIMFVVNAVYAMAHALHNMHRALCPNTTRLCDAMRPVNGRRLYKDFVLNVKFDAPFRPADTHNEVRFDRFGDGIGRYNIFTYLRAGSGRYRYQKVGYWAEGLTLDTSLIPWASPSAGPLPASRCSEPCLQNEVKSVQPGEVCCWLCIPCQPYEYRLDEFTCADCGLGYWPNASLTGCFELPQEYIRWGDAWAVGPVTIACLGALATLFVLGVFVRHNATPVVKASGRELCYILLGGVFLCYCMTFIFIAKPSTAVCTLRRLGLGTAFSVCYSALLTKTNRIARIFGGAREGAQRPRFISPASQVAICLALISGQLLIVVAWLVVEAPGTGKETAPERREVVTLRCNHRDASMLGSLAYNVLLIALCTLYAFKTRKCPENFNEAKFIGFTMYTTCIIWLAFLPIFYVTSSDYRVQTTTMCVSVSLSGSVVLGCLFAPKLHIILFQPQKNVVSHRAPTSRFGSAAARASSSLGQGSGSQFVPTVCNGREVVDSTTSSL
human mGlu2 receptors, sequence (Q14416 19-872): as above
mGluR3, sequence (Q14832 23-879): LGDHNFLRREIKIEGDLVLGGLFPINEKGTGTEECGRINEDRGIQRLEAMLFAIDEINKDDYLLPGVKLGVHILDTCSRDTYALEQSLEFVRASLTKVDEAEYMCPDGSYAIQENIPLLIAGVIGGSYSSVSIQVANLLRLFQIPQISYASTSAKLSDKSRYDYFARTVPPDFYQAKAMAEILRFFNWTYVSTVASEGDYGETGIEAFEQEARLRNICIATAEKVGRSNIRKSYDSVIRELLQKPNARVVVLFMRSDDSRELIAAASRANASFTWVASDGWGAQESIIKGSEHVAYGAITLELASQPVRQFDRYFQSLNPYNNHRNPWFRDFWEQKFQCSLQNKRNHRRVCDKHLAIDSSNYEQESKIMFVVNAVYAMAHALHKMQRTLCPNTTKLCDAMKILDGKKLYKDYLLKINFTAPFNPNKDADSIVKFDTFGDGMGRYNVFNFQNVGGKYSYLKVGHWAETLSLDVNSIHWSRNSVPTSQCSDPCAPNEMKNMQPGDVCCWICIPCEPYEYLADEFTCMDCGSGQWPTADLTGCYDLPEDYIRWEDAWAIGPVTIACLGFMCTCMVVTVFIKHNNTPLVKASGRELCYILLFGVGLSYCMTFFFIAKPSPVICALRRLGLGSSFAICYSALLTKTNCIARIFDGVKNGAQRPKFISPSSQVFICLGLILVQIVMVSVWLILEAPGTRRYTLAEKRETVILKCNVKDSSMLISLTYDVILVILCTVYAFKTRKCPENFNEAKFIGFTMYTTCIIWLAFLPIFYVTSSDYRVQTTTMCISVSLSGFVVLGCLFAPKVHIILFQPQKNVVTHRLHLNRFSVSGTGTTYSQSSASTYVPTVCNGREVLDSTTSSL
human mGlu3 receptors, sequence (Q14832 23-879): as above

SMILES: NC1(C(=O)O)CCc2cc(P(=O)(O)O)ccc21 (racemic) [APICA, (RS)-1-amino-5-phosphonoindan-1-carboxylic acid]
- IC50 (mGluR3): ~30 µM
- activity against Group I or Group III receptors [1]: no appreciable activity
- IC50 (mGluR2): ~30 µM

SMILES: CCC(=O)NC1Cc2ccccc2C(c2ccccc2)C1 (centres unmarked) [4-P-PDOT]
- maximum neuronal differentiation percent of positive control ([2]; agent alone): 51%
- EC50 ([2]; agent alone, extrapolated beyond highest tested concentration 31.6 μM, read-out: EC50, neuronal differentiation, estimated by extrapolation): 33.7 µM

SMILES: COc1ccc2cccc(CCNC(C)=O)c2c1 [Agomelatine]
- EC50 [2, 7]: 8.7 µM
- maximum neuronal differentiation percent of positive control ([2]; agent alone): 42%

SMILES: COC(=O)Nc1ccc2[nH]cc(CCNC(C)=O)c2c1 [GR 135,531, 5-Methoxy-carbonylamino-N-acetyl-tryptamine]
- EC50 ([2]; Homo sapiens, Neural stem cell, read-out: EC50, neuronal differentiation): 0.24 µM
- maximum neuronal differentiation percent of positive control ([2]; agent alone): 59%

SMILES: N[C@](CC1c2ccccc2Oc2ccccc21)(C(=O)O)[C@H]1C[C@@H]1C(=O)O [LY341495, (2S)-2-amino-2-(1S,2S-2-carboxycycloprop-1-yl)-3-(xanth-9-yl) propanoic acid]
- activity against KA, AMPA, and NMDA iGlu receptors [3]: substantially inactive

SMILES: N[C@@]1(C(=O)O)CO[C@H]2[C@H](C(=O)O)[C@H]21 [LY379268, (−)-2-Oxa-4-aminobicyclohexane-4,6-dicarboxylic acid]
- EC50 (human mGlu2 receptors): < 0.01 µM
- EC50 (human mGlu3 receptors): < 0.01 µM

SMILES: CC(=O)NCCc1c(Cc2ccccc2)[nH]c2ccccc12 [Luzindole]
- EC50 [2, 7]: 9.8 µM
- maximum neuronal differentiation percent of positive control ([2]; agent alone): 86%

SMILES: CCC(=O)NCC[C@@H]1CCc2ccc3c(c21)CCO3 [Ramelteon]
- effect on astrogenesis [4]: no astrogenesis
- EC50 [2, 7]: 8.1 µM
- maximum neuronal differentiation percent of positive control ([2]; agent alone): 45%

SMILES: O=C1CC2(CCCC2)CC(=O)N1CCCCN1CCN(c2ncccn2)CC1 [buspirone]
- latency to eat the food pellet (percent baseline) (Male F344 rats [5]): did not significantly reduce
- EC50 [4]: 5.7 µM
- maximum astrocyte differentiation relative to positive control [4]: 60% and 59%
- BrdU positive cells per cubic mm dentate gyrus (percent change) (Male F344 rats [6]): did not significantly change
- EC50 [2, 7]: 4.7 µM
- maximum neuronal differentiation percent of positive control ([2]; agent alone): 62%

SMILES: C[C@H](CS)C(=O)N1CCC[C@H]1C(=O)O [captopril]
- EC50 [2, 7]: 3.8 µM

SMILES: COc1ccc2[nH]cc(CCNC(C)=O)c2c1 [melatonin]
- latency to eat the food pellet (percent baseline) (Male F344 rats [5]): did not significantly reduce
- EC50 [4]: > 31.6 µM
- effect on astrogenesis [4]: no astrogenesis
- effect on astrogenesis ([4]; listed as Melatonin): no effect
- BrdU positive cells per cubic mm dentate gyrus (percent change) (Male F344 rats [6]): did not significantly change
- EC50 [2, 7]: > 31.6 µM
- EC50 ([2]; Homo sapiens, Neural stem cell, agent alone, extrapolated beyond highest tested concentration 31.6 μM, read-out: EC50, neuronal differentiation, estimated by extrapolation): ~49.7 µM

SMILES: NCCc1c[nH]c2ccc(O)cc12 [serotonin, 5-hydroxytryptamine]
- EC50 [2, 7]: 7.4 µM
